# Source: US10202345B2, “Substituted azaspiro(4.5)decane derivatives” (priority 2014, dated 2019)
# Target: human μ opiate receptor (Homo sapiens, UniProt P35372)
# Assay: μ opiate receptor binding assay with [3H]-naloxone (WGA-SPA beads)
# Details: mean
# Sequence of human μ opiate receptor (P35372 whole entry): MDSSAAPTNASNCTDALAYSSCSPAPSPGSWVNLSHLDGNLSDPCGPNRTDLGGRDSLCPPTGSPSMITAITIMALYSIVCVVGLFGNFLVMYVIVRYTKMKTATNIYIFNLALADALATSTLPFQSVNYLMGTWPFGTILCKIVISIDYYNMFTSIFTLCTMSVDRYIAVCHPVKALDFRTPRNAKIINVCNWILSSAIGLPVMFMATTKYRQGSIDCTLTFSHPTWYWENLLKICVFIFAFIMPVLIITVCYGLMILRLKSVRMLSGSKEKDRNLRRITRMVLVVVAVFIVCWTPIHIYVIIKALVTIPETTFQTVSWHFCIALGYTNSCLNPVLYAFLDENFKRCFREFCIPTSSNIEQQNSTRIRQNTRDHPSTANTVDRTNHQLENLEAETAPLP
row,Compound,Ki
1,"CN(C)C1(Cc2ccccc2)CCC2(CCNC2=O)CC1 (single isomer, unassigned) [Example 1, 8-Benzyl-8-(dimethyl-amino)-3-azaspiro[4.5]decan-4-one]",1.06 µM
2,"CN(C)C1(Cc2ccccc2)CCC2(CCNC2=O)CC1 (single isomer, unassigned) [Example 2, 8-Benzyl-8-(dimethyl-amino)-3-azaspiro[4.5]decan-4-one]",4.79 µM
3,"CN(C)C1(Cc2ccccc2)CCC2(CCNC2)CC1 (single isomer, unassigned) [Example 3, (8-Benzyl-3-azaspiro[4.5]decan-8-yl)-dimethylamine]",1.83 µM
4,"CN(C)C1(Cc2ccccc2)CCC2(CCNC2)CC1 (single isomer, unassigned) [Example 4, (8-Benzyl-3-azaspiro[4.5]decan-8-yl)-dimethylamine]",0.92 µM
5,"CN1CCC2(CCC(Cc3ccccc3)(N(C)C)CC2)C1 (single isomer, unassigned) [Example 5, (8-Benzyl-3-methyl-3-azaspiro[4.5]decan-8-yl)-dimethylamine]",1.45 µM
6,"CN1CCC2(CCC(Cc3ccccc3)(N(C)C)CC2)C1 (single isomer, unassigned) [Example 6, (8-Benzyl-3-methyl-3-azaspiro[4.5]decan-8-yl)-dimethylamine]",1.1 µM
7,"CCCCN1CCC2(CCC(C(=O)c3ccccc3)(N(C)C)CC2)C1 (single isomer, unassigned) [Example 107, [3-Butyl-8-(dimethylamino)-3-azaspiro[4.5]decan-8-yl]-phenylmethanone]",0.95 µM
8,"CN(C)C1(CC2CCCCC2)CCC2(CCNC2=O)CC1 (centres unmarked) [Example 92, 8-(Cyclohexylmethyl)-8-dimethylamino-3-azaspiro[4.5]decan-4-one]",3590 µM
9,CN1CCC2(CCC(Cc3ccccc3)(N(C)C)CC2)C1=O (centres unmarked) [Example 118],5.5 µM
10,CN1CCC2(CCC(Cc3ccccc3)(N(C)C)CC2)C1=O (centres unmarked) [Example 119],3.57 µM
11,CN1CC2(CCC(C3CCCC3)(N(C)C)CC2)CC1=O (centres unmarked) [Example 282],0.295 µM
12,CN(C)C1(C2CCCC2)CCC2(CCN(C(=O)C3COC3)C2)CC1 (centres unmarked) [Example 291],0.175 µM

# Tested on: not given
# Assay: not given
# Details: not given
row,Compound,melting point
1,"CN(C)C1(Cc2ccccc2)CCC2(CCNC2=O)CC1 (single isomer, unassigned) [Example 2, 8-Benzyl-8-(dimethyl-amino)-3-azaspiro[4.5]decan-4-one]",202 to 204 °C
2,"CN1CCC2(CCC(Cc3ccccc3)(N(C)C)CC2)C1 (single isomer, unassigned) [Example 6, (8-Benzyl-3-methyl-3-azaspiro[4.5]decan-8-yl)-dimethylamine]",57 to 58 °C
